Experimental data taken from patent US20050154036A1, “Methods of using zonisamide as an adjunctive therapy for partial seizures” (Eisai Co., Ltd., priority 2004, published 2005).

Tests used:
[1] = cited from earlier work; for hyperammonemia as adverse effect: literature
[2] = human, in vivo
From the text: The pharmacovigilance data that were collected, reviewed and analyzed provided the following information in respect of the incidence of hyperammonemia. A total of 4 cases fulfilled the criteria of potential hyperammonemia cases. These cases were reviewed in detail for evaluation of possible safety signals. Two US cases were reported as either high ammonia levels or increased ammonia. Two Japanese cases were reported as hyperammonemia.
Of these, two (2) cases (both ZON1000262 and ZON1000346) had strong confounding factors and seem to be unrelated to zonisamide, but the possibility of zonisamide involvement cannot be completely excluded. The two cases of hyperammonemia originated from Japan and both involved adult patients. Both cases were serious and described as life-threatening. […]
Estimates of exposure, based upon retail and mail order prescriptions, indicate that the number of unique patients taking zonisamide capsules in the U.S. is about 37,276 (total prescriptions per year/average number of prescriptions per patient per year less a calculated percentage decrease based on estimated annual dropouts) in the time between approval in 2000 and December 2002. […] Similarly, the incidences of NMS estimated herein are unlikely to be higher than calculated. Based on the exposure data and number of hyperammonemia cases, the incidence of hyperammonemia is calculated to be about […].

[3] = system: sodium channels; conditions: in vitro; cited from earlier work
[4] = system: T-type Ca2+ currents; conditions: in vitro; cited from earlier work
[5] = system: GABA/benzodiazepine receptor ionophore complex; conditions: in vitro; cited from earlier work
[6] = system: cultured mouse spinal cord neurons; conditions: 10-30 μg/mL; cited from earlier work
[7] = system: rat hippocampal slices; conditions: 10-30 μg/mL; cited from earlier work
[8] = system: dopaminergic and serotonergic neurotransmission; conditions: in vivo microdialysis; cited from earlier work
[9] = cited from earlier work
[10] = system: carbonic anhydrase; conditions: fraction of the inhibition by acetazolamide; cited from earlier work

For `NC(=O)N1c2ccccc2C=Cc2ccccc21` [carbamazepine], the “hyperammonemia as adverse effect” value [1] is listed as “known to cause hyperammonemia”.
For `CCCC(CCC)C(=O)O` [valproate], the “hyperammonemia as adverse effect” value [1] is given as “known to cause hyperammonemia” and the “cases of hyperammonemia associated with the drug” value ([1]; since 1979, O'Neil et al. 2002) is given as “more than 30 cases”.
For `NS(=O)(=O)Cc1noc2ccccc12` [zonisamide, 1,2-benzisoxazole-3-methanesulfonamide], the “cases fulfilling the criteria of potential hyperammonemia cases” value [2] is listed as 4 cases, the incidence of hyperammonemia [2] is listed as “about 1:1,222,453” and the “effect on sodium channels” value [3] is listed as “blocks sodium channels”. The “effect on voltage-dependent, transient inward currents (T-type Ca2+ currents)” value [4] was “reduces”, the “binding to the GABA/benzodiazepine receptor ionophore complex” value [5] was “binds to the GABA/benzodiazepine receptor ionophore complex in an allosteric fashion” and the “changes in chloride flux” value [5] was “does not produce changes in chloride flux”. The “postsynaptic GABA or glutamate responses” value [6] was “without affecting”, the synaptically-driven electrical activity [6] was “suppresses” and the “neuronal or glial uptake of [3H]-GABA” value [7] was “without affecting”. For the same compound, the “dopaminergic and serotonergic neurotransmission” value [8] was “facilitates”, the hepatic enzyme induction ([9]; in vivo) was “not known to be a hepatic enzyme inducer” and the “time required to achieve steady-state levels” value ([9]; upon reaching a stable dose or following dosage adjustment) was “up to two weeks”. The “carbonic anhydrase inhibition compared to acetazolamide” value [10] was 1/50.
